The values that follow come from patent US5866570A, “Treatment of vascular leakage and related syndrome such as septic shock by administration of metalloproteinase inhibitors” (Wisconsin Alumni Research Foundation, priority 1994, dated 1999).

One may read the inhibition as the relative decrease from the control value, in per cent. Broadly, the IC50 is the concentration that inhibits the measured activity by half.

One data set deals with B16-F10 melanoma cells. Conditions: pretreatment of B16-F10 cells at 2, 20 and 100 μM; cited from earlier work.
A further data set concerns metastases. Conditions: in vivo; cited from earlier work.
A further data set relates to V-79A fibroblasts. Conditions: tissue culture; cited from earlier work.
In data set [1] the test system is MDA-MB-231 cells (human breast carcinoma). Kind of data set: in vitro invasion assay through matrigel (Transwell). The note with it: preliminary screen. The format is cell-based. On the procedure: (§1) Razoxane, various bis(hydroxylated)(2,6-dioxopiperazine)s, and various hydrophobic analogs were tested in an in vitro assay for inhibition of tumor cell penetration of a reconstituted basement membrane, matrigel, isolated from the Englegbreth-Holm-Swarm (EHS) tumor (disclosed in Kleinman et al., Biochem. (1982), 24, 6188-6193) first described by Albini et al, Cancer Res. (1987) 47, 3234-3245. An 8 μm pore filter coated with matrigel separates a lower compartment containing a chemoattractant and an upper compartment containing the cells and test compound. In particular, the following compounds were tested: razoxane, (1α, 2α, 4α, 5α)-4,4'-(4,5-dihydroxy-1,2-cyclohexanediyl)bis(2,6-piperazinedione); (1α, 2α, 4β, 5β)-4,4'-(4,5-dihydroxy-1,2-cyclohexanediyl)bis(2,6-piperazinedione);(1β, 2α,4α,5α)-4,4'-(4,5-dihydroxy-1,2-cyclohexanediyl)bis(2,6-piperazinedione); (1β, 2α, 4α,5β)-4,4'-(4,5-dihydroxy-1,2-cyclohexanediyl)bis(2,6piperazinedione); (1α, 2β, 4α,5β)-4,4'-(4,5-dihydroxy-1,2cyclohexanediyl)bis(2,6-piperazinedione); N,N'-cyclohexane-1,2-diylbis[N(2-ethoxy-2-oxoethyl)]glycine; N,N'-4-cyclohexene-1,2-diylbis[N-(2-ethoxy-2-oxoethyl)-glycine ester; (3aα, 5β, 6β, 7aα)-4,4'-(hexahydro-2,2-dimethyl1,3-benzodioxole-5,6-diyl)bis(2,6-piperazinedione); (3aα, 5α, 6α, 7aα)-4,4'-(hexahydro-2,2-dimethyl-1,3-benzodioxole-5,6-diyl)bis(2,6- piperazinedione); (3aα, 5α, 6β, 7aα)-4,4'-(hexahydro-2,2-dimethyl-1,3-benzodioxole-5,6-diyl)bis-2,6- piperazinedione; (3aα, 5β, 6α, 7aβ)-4,4'-(hexahydro-2,2dimethyl-1,3-benzodioxole-5,6-diyl)bis(2,6-piperazinedione); and (3aα, 5α, 6β, 7aβ)-4,4'-(hexahydro-2,2-dimethyl-1,3-benzodioxole-5,6-diyl) bis(2,6piperazinedione). Metastatic cells are able to degrade the basement membrane protein barrier and migrate through the pores of the filter whereas non-metastatic cells remain on the upper surface. The cells that pass to the under side of the filter are then counted under a microscope. […] Variations of this assay have been used to correlate this in vitro invasion with metastatic potential in vivo (Albini et al. (Id.); Hendrix et al. Cancer Letters (1987); 38, 127-247; Repesh L. A., Invasion Metastasis (1989) 9, 192-208 to select for more highly invasive cells (Teranova et al., Proc. Nat. Acad. Sci., (1986), 83, 465, 464; Tullberg et al., Invasion Metastasis, (1989), 9, 13-26; Sefer et al., Biotechniques, (1990), 9, 324-331), and to test compounds for inhibition (Nakajima et al., Cancer Res. (1989), 49, 1698-1756).
(§2) This method has been improved to increase the number of assays which may be performed and analyzed per day. In particular, such improvement comprises the use of disposable Transwells (Costar) units described by Repesh et al., Invasion Metastasis, (1989), 9, 192-208, which consist of an 8 μm pore filter attached to an insert that fits in a 24 well culture plate. Matrigel concentration is titrated from zero to complete inhibition of motility of each invasive cell line used in the assay and for each batch of matrigel. The matrigel concentration which yields 50% or greater inhibition of motility in a 6 hr assay (usually from 15 to 50 μg of protein per filter) is chosen for determination of invasion. Motility of cells through the 8 μm filters is not by passive diffusion since the pore size is smaller than the cells, and is determined in the same chamber in the absence of matrigel. Motility is stimulated two-fold by the presence of fibroblast conditioned medium (3T3 cells) as a chemoattractant (data not shown). The cell lines used are HT-1080, a human fibrosarcoma, and MDA-MB-231, a human breast carcinoma (both available from the American Type Tissue Culture). These cell lines express both the 72 kD and the 92 kD collagenase type IV as determined by zymography (data not shown).
(§3) For inhibition studies, 5×10^5 cells are plated in 200 μl of DMEM+0.1% BSA+the inhibitor (or appropriate solvent control) into the upper chamber of the Transwell. […]

The subject of data set [2] is HT-1080 cells (human fibrosarcoma). The data set is described as above. The format is cell-based. The protocol: as §1, §2, §3
Data set [3] addresses T1, E. coli recombinant human 72 kD collagenase type IV (MMP-2), pAPMA activated (Homo sapiens, UniProt P08253).
T1 construct: made in house; host or cells: E. coli
T1 sequence (P08253 110-660): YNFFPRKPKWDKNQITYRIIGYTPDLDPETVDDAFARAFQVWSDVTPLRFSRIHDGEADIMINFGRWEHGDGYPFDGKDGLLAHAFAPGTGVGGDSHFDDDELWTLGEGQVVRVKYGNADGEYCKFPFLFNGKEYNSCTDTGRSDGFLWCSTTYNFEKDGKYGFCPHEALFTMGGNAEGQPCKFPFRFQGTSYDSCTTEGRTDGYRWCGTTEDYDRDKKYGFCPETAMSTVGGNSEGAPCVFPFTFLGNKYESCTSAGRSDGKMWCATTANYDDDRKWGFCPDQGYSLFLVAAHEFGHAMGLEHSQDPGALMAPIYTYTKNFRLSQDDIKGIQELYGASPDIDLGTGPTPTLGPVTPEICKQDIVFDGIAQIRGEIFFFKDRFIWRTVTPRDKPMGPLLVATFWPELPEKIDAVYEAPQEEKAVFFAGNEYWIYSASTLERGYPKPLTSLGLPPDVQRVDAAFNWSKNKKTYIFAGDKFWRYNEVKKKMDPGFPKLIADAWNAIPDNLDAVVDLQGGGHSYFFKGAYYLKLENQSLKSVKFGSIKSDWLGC
Description: gelatinase assay (3H-gelatin degradation), Example 9. It counts as biochemical. Conditions: 100 ng activated enzyme, 4 hrs preincubation with inhibitor at 37° C., 3H-gelatin substrate; read-out: IC50, inhibition of collagenase type IV gelatinase activity. An excerpt: Type IV collagenases are highly efficient in digesting gelatin. Inhibition of the gelatinase activity of human recombinant collagenase type IV was used as an initial assay for testing the bis(dioxopiperazine)s. The recombinant 72 kD collagenase IV used in the gelatinase assays was made in E. coli from a cDNA insert obtained from Dr. William Stetler-Stevenson (NCI). The protein runs at 72 kD on SDS-PAGE, has gelatinolytic activity in zymogram, is activated by pAPMA, is precipitated by a monoclonal anti-peptide antibody to the pro-region of the 72 kD enzyme, and is inhibited by TIMP-2. Rat tail ^3 H-collagen I (Dupont-NEN) is denatured to become gelatin by heating at 60° C. for 20 min. E. coli recombinant human 72 kD collagenase type IV is activated by incubation with 1 mM pAPMA for 1 hr. at 37° C. 100 ng of activated enzyme is added to each tube containing 50 mM Tris-HCl pH 7.5, 5 mM CaCl2 and 0.005% Brij-35 and pre-incubated with inhibitor or solvent control for 4 hrs. at 37° C. in a total of 25 μl. 10,000 cpm of ^3 H-gelatin substrate in 30 μl is added (final volume of 55 μl per sample) and the reaction mixture is incubated at 37° C. for 2 to 16 hrs. […] Enzyme activity is calculated from the radioactivity in the supernatant and activity of the compounds expressed as percent solvent control.

Take `O=C1CN2CCN3CC(=O)NC(=O)[C@H]3[C@H]2C(=O)N1` [cis-21]: in the data set with B16-F10 melanoma cells, the “metastasis to the lungs after pretreatment of the cells” value was “ineffective”.
As to `O=C1CN([C@@H]2C[C@H]2N2CC(=O)NC(=O)C2)CC(=O)N1` (relative stereo) [trans-15], in the data set on metastases, the “effect on development of metastases” value is “stimulates”. Also, in the data set with V-79A fibroblasts, the cytotoxic activity entry was “inactive”.
Consider `O=C1CN([C@@H]2C[C@@H]2N2CC(=O)NC(=O)C2)CC(=O)N1` [cis-16, cis-4,4'-(cyclopropanediyl) bis(2,6)dioxopiperazine], for which the “effect on development of metastases” value in the data set with metastases is listed as “inhibits”.
Regarding `O=C1CN2CCN3CC(=O)NC(=O)[C@H]3[C@@H]2C(=O)N1` (relative stereo) [trans-20], the “metastasis to the lungs after pretreatment of the cells” value in the data set on B16-F10 melanoma cells is given as “significantly reduces the metastasis”.
On to `CC1(C)O[C@H]2C[C@@H](N3CC(=O)NC(=O)C3)[C@H](N3CC(=O)NC(=O)C3)C[C@H]2O1` (relative stereo) [Compound 78], for which the inhibition of invasion result in data set [1] and in data set [2] (preliminary screen) was “inhibit invasion” each time. In addition, the “effect on cell motility” value is “without inhibiting cell motility” in data set [1] (no matrigel) and “without inhibiting cell motility” in data set [2] (preliminary screen, no matrigel). For the same compound, the inhibition at 290 µM in data set [2] (Homo sapiens, HT-1080, at 290 μM, 6 hour assay, read-out: maximum inhibition of invasion) amounted to 25%. Besides, in data set [3], the IC50 is 45 µM.
